Values of other authors, collected in patent publication US7803755B2, “Molecules for the treatment and prevention of fungal diseases” (priority 2006, dated 2010).
Counter-ions that a name gives are not always drawn.

Assays:
onychomycosis = conditions: after using ciclopirox lacquer
[1] = system: Candida species, including Candida albicans
[2] = system: Trichophyton rubrum, Trichophyton mentagrophytes, Trichophyton tonsurans, Epidermophyton floccosum, Microsporum canis, Microsporum audouini, and Microsporum …; conditions: wide spectrum of organisms

Structure (SMILES)	patients rating their onychomycosis as improved (onychomycosis) [%]	antifungal activity in vitro [1]	antifungal activity in vitro [2]
Cc1cc(C2CCCCC2)n(O)c(=O)c1 [Ciclopirox]	90	–	–
CN(C/C=C/c1ccccc1)Cc1cccc2ccccc12 [Naftifine hydrochloride, naftifine hydrochloride]	–	fungistatic activity	fungicidal activity
